Results taken from patent US20130202698A1 (NANJING SANHOME PHARMACEUTICAL CO., LTD., priority 2005, published 2013).
Like-named read-outs stand apart in the source and are kept apart here. Marks after values point to notes of the source that are not given here.

Tests used:
[1] = tested on: righting reflex; test: Hypnotic effect, loss of righting reflex; type: in vivo, mice
Method: Thirty minutes after drug administration, the number of animals losing righting reflex (LORR) was recorded. […] Sodium pentobarbital was used at […] as the positive control.

[2] = tested on: Beagle dogs
Method: In the studies, male and female Beagle dogs were treated at high doses of ornidazole enantiomers for 2 weeks, and then sacrificed for anatomical and pathological examinations. […] All the doses were administered in the levo- and racemate groups.

[3] = Acute toxicity in mice (LD50); details: mouse, in vivo
[4] = tested on: trichomonas vaginalis; test: Pharmacodynamic study of trichomonas vaginalis infection in mice; type: in vivo; parameters: ED90: unit not given beside the values; details: for ED50: Trichomonas vaginalis; for ED90: dosage of 90% inhibition rate
Method: Male ICR mice were injected intraperitoneally with liquid containing 0.4 ml 3×10^6 trichomonas vaginalis (trichomonas vaginalis from clinical patients). The mice were randomly divided into 19 groups, each with 10. The mice in solvent control group were given blank solutions by tail vein injection. The treatment groups were injected intravenously at 2, 24, 48, and 72 hours after infection with active drugs. The animals were killed five days after infection. Washing offal, fluid was centrifuged, and microscopically examined for life larvae. Autopsy was performed to determine whether there was any visceral and abdominal abscess, microscopic examination was conducted to determine the number of live trichomoniasis in the abscess. […] The abscess formation was inhibited in the treatment groups[…] and the number of live trichomoniasis was reduced. Calculate the dosage of 50% (ED50) and 90% (ED90) inhibition rate.

[5] = tested on: amoeba dysentery; test: Pharmacodynamic study of cecum amoeba infection in mice; type: in vivo; details: male ICR mice infected in the cecum, drug i.v. at 24, 48, 72 hours; for ED50: Mus musculus, iv, dosage of 50% inhibition rate; for ED90: dosage of 90% inhibition rate
Method: Male ICR mice were injected with liquid containing about 200,000 units of amoeba dysentery in the cecum. The mice were randomly divided into 19 groups, each with 10. The mice in solvent control group were given blank solutions by tail vein injection. The treatment groups were injected intravenously at 24, 48, 72 hours after infection with active drugs. The animals were killed six days after infection. Intestinal mucosal biopsies were done, and comparative studies of different stages of the amoeba were studied under microscope. […] Calculated the dosage of 50% (ED50) and 90% (ED90) inhibition rate.

[6] = Phase II clinical trial, intravenous, adverse events; type: in vivo, human; details: human phase II, I.V.
Method: A double-blinded randomized controlled trial was carried out to compare the adverse events between the I.V. levo-ornidazole and racemate treatment groups. […] The high rate of adverse events observed from the treatment by the racemic drug caused patient treatment non-compliant, which could be dangerous for life-threatening infections.

[7] = tested on: isoniazid-induced convulsion; test: Anticonvulsant effects on isoniazid-induced convulsion in mice; type: in vivo; details: Mean ± SD, n=10
Method: (§1) Mice are randomized into 4 treatment groups (n=10 with half male and half female): dextro- or levo-ornidazole (dosage 40, 80, 160 mg/kg), vehicle control group (15% propylene glycol in 0.9% sodium chloride, 20 mL/kg) and the positive control group. Animals are treated with known convulsion-inducing agents, followed by the drug or vehicle control given intravenously. The dose volume is 20 mL/kg with an infusion rate of 0.2 mL/10 seconds. The anticonvulsant effects are observed and recorded (see Tables 2-6).

[8] = tested on: thiosemicarbazide-induced convulsion; test: Anticonvulsant effects on thiosemicarbazide-induced convulsion in mice; type: in vivo; details: n=10; for Convulsion Latency / Time to Death: Mean ± SD
Method: as §1

[9] = tested on: glutamate; test: Effects on excitatory neurotransmitter glutamate levels in mice brain; type: in vivo; details: FIG. 4
Text: In another experiment, the effects on excitatory neurotransmitter levels by levo- and dextro-ornidazole were compared.

[10] = tested on: motor balance and coordination; details: both, mouse, in vivo
Method: Motor balance and coordination were tested using a modified beam walking method. Mice were put on a smooth beam tilted at an angle of 70 degree. Mice passed the test by standing on the beam for 0.5 minute without falling off. All the mice were pre-screened before the studies, and a total of 110 mice were selected by passing the beam test in 3 consecutive tries. The selected mice were divided into 11 groups with 10 mice in each group (half male and half female). At certain time points after drug administration, mice were tested on the beam for 3 consecutive times. A mouse was counted as failing to the test if it fell off the beam for 2 or more times.
The dose volume was 0.2 mL/10 gram and infusion rate was 0.2 mL/10 seconds. Chlorpromazine was used as the positive control.

[11] = tested on: plasma protein
[12] = male ICR mice infected intraperitoneally, drug i.v. at 2, 24, 48, 72 hours

Cc1ncc([N+](=O)[O-])n1CC(O)CCl (racemic) [Racemic ornidazole, 1-(3-Chloro-2-hydroxypropyl)-2-methyl-5-nitroimidazole]
Number of animals Loss of Righting Flex 30 min Post-dose ([1]; mice, 40 mg/kg, 10 animals): 0
Number of animals Loss of Righting Flex 30 min Post-dose ([1]; mice, 80 mg/kg, 10 animals): 0
Number of animals Loss of Righting Flex 30 min Post-dose ([1]; mice, 160 mg/kg, 10 animals, listed as Racemate): 6*^#
Number of animals Loss of Righting Flex 30 min Post-dose ([1]; mice, 160 mg/kg, 10 animals, listed as racemate): 6
Toxicity Severity ([2]; Beagle dogs, I.V. 200 mg/kg for 2 weeks): Moderate
LD50 ([3]; intravenous injection): 306 mg/kg
LD50 ([3]; ip, intraperitoneal injection): 1120 mg/kg
LD50 ([3]; oral gavage): 769 mg/kg
ED50 ([4]; 72 h): 11.3 mg/kg
ED90 [4, 12]: 43.8
ED50 [5]: 11.4 mg/kg
ED90 [5]: 55.2
Adverse events reported (total) [6]: 42
Appetite drop, # of Patients with AE [6]: 0
Appetite drop, Incidence (%) [6]: 0.00%
Dizziness, # of Patients with AE [6]: 5
Dizziness, Incidence (%) [6]: 3.60%
Dry mouth, # of Patients with AE [6]: 2
Dry mouth, Incidence (%) [6]: 1.44%
Headache, # of Patients with AE [6]: 1
Headache, Incidence (%) [6]: 0.72%
Hypersomnia, # of Patients with AE [6]: 10
Hypersomnia, Incidence (%) [6]: 7.19^## %
Hypodynamia, # of Patients with AE [6]: 1
Hypodynamia, Incidence (%) [6]: 0.72%
Nausea, # of Patients with AE [6]: 1
Nausea, Incidence (%) [6]: 0.72%
Stomach discomfort, # of Patients with AE [6]: 1
Stomach discomfort, Incidence (%) [6]: 0.72%
Total incidence rate of adverse events [6]: 21.58%
Vertigo, # of Patients with AE [6]: 17
Vertigo, Incidence (%) [6]: 12.23^## %
Vomiting, # of Patients with AE [6]: 1
Vomiting, Incidence (%) [6]: 0.72%
WBC decline, # of Patients with AE [6]: 3
WBC decline, Incidence (%) [6]: 2.16%
Patients with adverse events (total) ([6]; out of 136 (levo) / 139 (racemate) patients): 30 patients

Cc1ncc([N+](=O)[O-])n1C[C@@H](O)CCl [D-ornidazole, R-(+)-ornidazole]
Convulsion Latency ([7]; 40 mg/kg i.v.): 43.2 ± 5.4 min
Time to Death ([7]; 40 mg/kg i.v.): 53.6 ± 7.2 min
Convulsion Latency ([7]; 80 mg/kg i.v.): 46.1 ± 2.2 min
Time to Death ([7]; 80 mg/kg i.v.): 57.0 ± 7.3 min
Convulsion Latency ([7]; 160 mg/kg i.v.): 48.3 ± 14.1 min
Time to Death ([7]; 160 mg/kg i.v.): 81.5 ± 15.8 min
Convulsion Latency ([8]; 40 mg/kg i.v.): 94.3 ± 25.1 min
Time to Death ([8]; 40 mg/kg i.v.): 153.9 ± 43.7 min
Convulsion Latency ([8]; 80 mg/kg i.v.): 121.8 ± 16.8 min
Time to Death ([8]; 80 mg/kg i.v.): 213.6 ± 56.5 min
Mortality Rate ([8]; 160 mg/kg i.v.): 2/10**
Rate of Convulsion ([8]; 160 mg/kg i.v.): 3/10**
Effect on glutamate levels in cerebrum and cerebellum [9]: significantly decreased
Number of animals Loss of Righting Flex 30 min Post-dose ([1]; both, mouse, in vivo, 40 mg/kg, 30 min): 0
Number of animals Loss of Righting Flex 30 min Post-dose ([1]; both, mouse, in vivo, 80 mg/kg, 30 min): 0
Toxicity Severity ([2]; dog, in vivo, iv, 200 mg/kg): Severe
ED50 ([4]; male ICR mice infected intraperitoneally, drug i.v. at 2, 24, 48, 72 hours, dosage of 50% inhibition rate, read-out: ED50): 14.1 mg/kg
ED90 [4, 12]: 54.5
ED50 [5]: 13.3 mg/kg
ED90 [5]: 64.4
Number of Animals Fall Off ([10]; 40 mg/kg, 0.5 h): 0
Number of Animals Fall Off ([10]; 40 mg/kg, 1 h): 1
Number of Animals Fall Off ([10]; 40 mg/kg, 2 h): 2
Number of Animals Fall Off ([10]; 40 mg/kg, 3 h): 3
Number of Animals Fall Off ([10]; 40 mg/kg, 4 h): 0
Number of Animals Fall Off ([10]; 80 mg/kg, 0.5 h): 3
Number of Animals Fall Off ([10]; 80 mg/kg, 1 h): 3
Number of Animals Fall Off ([10]; 80 mg/kg, 2 h): 2
Number of Animals Fall Off ([10]; 80 mg/kg, 3 h): 1
Number of Animals Fall Off ([10]; 80 mg/kg, 4 h): 0
Number of Animals Fall Off ([10]; 160 mg/kg, 0.5 h): 10##
Number of Animals Fall Off ([10]; 160 mg/kg, 1 h): 10##
Number of Animals Fall Off ([10]; 160 mg/kg, 2 h): 10##
Number of Animals Fall Off ([10]; 160 mg/kg, 3 h): 10##
Number of Animals Fall Off ([10]; 160 mg/kg, 4 h): 9##
Plasma protein binding, levo- vs dextro-ornidazole [11]: Similar
